The source of these data is article PMC10081362 (Research Square, 2023).

Series [1] deals with T1, OXTR (Homo sapiens, UniProt P30559).
T1 construct: host or cells: CHO-K1, stably transfected
T1 sequence (P30559 1-389): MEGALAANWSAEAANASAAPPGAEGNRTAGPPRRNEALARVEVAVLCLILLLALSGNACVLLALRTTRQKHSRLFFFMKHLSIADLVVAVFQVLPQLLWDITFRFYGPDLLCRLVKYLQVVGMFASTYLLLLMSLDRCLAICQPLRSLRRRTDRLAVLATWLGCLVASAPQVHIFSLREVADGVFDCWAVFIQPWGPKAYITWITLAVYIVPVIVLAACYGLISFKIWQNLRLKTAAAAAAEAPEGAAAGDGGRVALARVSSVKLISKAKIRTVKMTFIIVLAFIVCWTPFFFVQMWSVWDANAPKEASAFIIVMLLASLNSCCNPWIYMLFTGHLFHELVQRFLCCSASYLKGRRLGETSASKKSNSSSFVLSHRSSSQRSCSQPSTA
Description: Radioligand competitive binding assay (NIMH PDSP). How it is done: Radioligand binding assays were carried out by the (NIMH) Psychoactive Drug Screening Program[61]. The detailed experimental protocols for the radioligand assay are available on the NIMH PDSP website at http://pdsp.med.unc.edu/UNC-CH%20Protocol%20Book.pdf. […] Binding data were analyzed and plotted using Prism 8 (GraphPad, San Diego, CA).

In series [2] the test system is OXTR+ neurons in the auditory cortex. In kind it is cell-based, mouse. How it is done:
In vitro recordings were performed in acute slices of the auditory cortex prepared from male and female 2–5 month old OXTRcre∷Ai9 mice. Mice were deeply anesthetized with 5% isoflurane and perfused transcardially with ice-cold dissection buffer containing (in mM): 87 NaCl, 75 sucrose, 2.5 KCl, 1.25 NaH2PO4, 0.5 CaCl2, 7 MgCl2, 25 NaHCO3, 1.3 ascorbic acid, and 10 D-glucose, bubbled with 95%/5% O2/CO2 (pH 7.4). Following perfusion and decapitation, brains were removed and placed in the cold buffer solution, and slices (250–300 μm thick) were prepared with a vibratome (Leica P-1000). Slices were placed in warm artificial cerebrospinal fluid (ACSF, in mM: 124 NaCl, 2.5 KCl, 1.5 MgSO4, 1.25 NaH2PO4, 2.5 CaCl2, and 26 NaHCO3) (33–35 °C) for <30 minutes, then cooled to room temperature (22–24 °C) for at least 30 minutes before use. Slices were transferred to the recording chamber and superfused (2.5–3 ml min^−1) with oxygenated ACSF at 33 °C. Whole-cell current-clamp recordings were made from layer 2/3 pyramidal cells with a Multiclamp 200B or 700B amplifier (Molecular Devices, San Diego). Cortical regions and layers were identified using IR video microscopy (Olympus, Japan), and OXTR-positive neurons were identified based on expression of tdTomato, visualized with an Olympus 40 × water- immersion objective with TRITC filter. […]

The target of series [3] is T1, OXTR. Description: Calcium flux fluorescence assay (FLUO-8) in CHO-K1 cells stably expressing OXTR. In kind it is cell-based. How it is done:
Stably transfected CHO-K1 cell lines overexpressing OXTR or V1a were obtained from Dr. Bryan Roth via the National Institute of Mental Health (NIMH) Psychoactive Drug Screening Program. The cells were cultured and maintained in Hams F12 medium (Gibco, Waltham, MA) supplemented with 400 μg/ml G418 (Gibco, Waltham, MA), 10% heat-inactivated FBS (Gibco, Waltham, MA), 15 mM HEPES (Gibco, Waltham, MA), 100 units ml^−1 of penicillin, 100 μg ml^−1 of streptomycin. The cells were grown in an atmosphere of 37°C and 8% CO2 and were passaged following trypsinization with Trypsin-LE (Gibco, Waltham, MA). CHO-K1 cells overexpressing OXTR were seeded overnight at 50,000 cells/100 μL/well in a black wall/clear bottom 96-well plate pretreated with poly-lysine (Gibco, Waltham, MA). […] The calcium flux assay was carried out on a FlexStation 3 Microplate Reader (Molecular Devices, San Jose, CA).
(A change in cytosolic calcium serves as a functional read-out for many receptors and channels.)

Series [4] can be described thus: UV-Vis absorption spectra upon 365 nm irradiation. In kind it is physicochemical. Particulars: 365 nm LED, 3 mW; 20 μM, 1% DMSO/PBS; absorption spectrum unchanged. How it is done: All measurements were performed in the dark or under red light. Samples were stored at −20 °C. UV-Vis spectroscopy was performed using a Cary 60 UV-Vis Spectrophotometer equipped with a PCB 1500 High-Performance Peltier thermostat (Agilent Technologies, Santa Clara, CA). Samples were measured using ultra-micro cuvettes with a 10 mm light path (BrandTech, Essex, CT). Irradiation was performed using an Optoscan Monochromator equipped with an Optosource High-Intensity Arc Lamp (Cairn Research, Kent, UK) set to 15 nm full width at half maximum and installed with a 75 W UXL-S50A xenon arc lamp (USHIO, Tokyo, JP). The light source was set to 365 nm, and the power output was measured at the sample position using a PM100D compact power and energy meter console and S120VC Si photodiode sensor (Thorlabs, Newton, NJ). A constant 3 mW power output at 365 nm was maintained throughout the experiments. The monochromator was controlled using a custom MATLAB program, and data were analyzed and plotted using Prism 8 (GraphPad, San Diego, CA).
For measuring the UV-visible absorption spectra, we prepared a […] DMSO stock solution of each respective compound, diluted to 20 μM (1% DMSO in PBS). A sample (1 mL) of the solution (20 μM) was transferred to a cuvette and measured by under ambient conditions (24 °C). […]

The subject of series [5] is mammary tissue from lactating GCaMP6f∷K5CreERT2 mice. Description: Ex vivo three-dimensional time-lapse imaging of lactating mammary tissue. Type of series: cell-based, mouse. The settings on record: 85 nM oxytocin in bath. How it is done: Mammary glands were harvested from lactating GCaMP6f;K5CreERT2 mice diced into 3- to 4- mm^3 pieces and loaded with CellTracker Red (1.5 μM, ThermoFisher C34552, ThermoFisher, Waltham, MA) for at least 30 minutes in DMEM/F12 containing 10% FCS. Under these conditions, CellTracker preferentially labels luminal cells. […] Samples were imaged on a Leica TCS SP8 inverted microscope (Leica, Germany) with 20× 0.75NA HC PL APO CS2 objective. For uncaging, a region of interest (ROI) was targeted with a 405 nm laser at 100% laser power for 3s each trial. […] Protocol for image processing and analysis was previously reported in (Stevenson et al., 2020)[48].

In the case of `CC[C@H](C)[C@@H]1NC(=O)[C@H](Cc2ccc(OCc3ccccc3[N+](=O)[O-])cc2)NC(=O)[C@@H](N)CSSC[C@@H](C(=O)N2CCC[C@H]2C(=O)N[C@@H](CC(C)C)C(=O)NCC(N)=O)NC(=O)[C@H](CC(N)=O)NC(=O)[C@H](CCC(N)=O)NC1=O` [cOT1], the IC50 on OXTR [1] came to 2.01 µM. For the same molecule, the “toxic effects on neurons in slices” value in series [2] is on record as “without apparent toxic effects”.
As for `CC[C@H](C)[C@@H]1NC(=O)[C@H](Cc2ccc(O)cc2)NC(=O)[C@@H](N)CSSC[C@@H](C(=O)N2CCC[C@H]2C(=O)N[C@@H](CC(C)C)C(=O)NCC(N)=O)NC(=O)[C@H](CC(N)=O)NC(=O)[C@H](CCC(N)=O)NC1=O` [oxytocin], the “activation of OXTR+ cells in presence of OXTR antagonist OTA” value on OXTR [3] (1 μM agonist with 10 μM OTA, after photolysis with 365 nm LED, Fig. 2e) is recorded as “failed to activate”. The “fluorescence (calcium flux)” value on OXTR [3] (oxytocin 1 μM, Fig. 2d, normalized to maximal response produced by oxytocin, mean ± SEM, n=5 wells) amounted to 142.4±1.8. Moreover, the “duration of stability towards 365 nm irradiation” value in series [4] is “at least 30 minutes”. Also, the “peak depolarization of OXTR+ neurons” value in series [2] (1 μM oxytocin wash-on, or cOT1 wash-in and 365 nm light pulsed at 20 Hz, Fig. 4k) was “significant membrane depolarization”. In series [5], the “calcium and contraction response to whole-tissue wash on” value is “increase in intracellular calcium, followed by cell and alveolar contraction across all cells”.

One may read the IC50 as the concentration that gives 50% inhibition. Higher therefore signals weaker potency.
